Reference: patent publication US20080009418A1, “Selective Inhibitors” (Alchemia LTD., priority 2004, published 2008)

Assays:
[1] = biological target: T1, Human neuropeptide Y (NPY-Y1) (Homo sapiens, UniProt P25929); assay: Radioligand binding, human neuropeptide Y NPY-Y1 membranes, FlashPlate, [125I]-PYY; details: compound at 10 μM; [125I]-PYY
T1 construct: purchased Perkin Elmer Biosignal
T1 sequence (P25929 1-384): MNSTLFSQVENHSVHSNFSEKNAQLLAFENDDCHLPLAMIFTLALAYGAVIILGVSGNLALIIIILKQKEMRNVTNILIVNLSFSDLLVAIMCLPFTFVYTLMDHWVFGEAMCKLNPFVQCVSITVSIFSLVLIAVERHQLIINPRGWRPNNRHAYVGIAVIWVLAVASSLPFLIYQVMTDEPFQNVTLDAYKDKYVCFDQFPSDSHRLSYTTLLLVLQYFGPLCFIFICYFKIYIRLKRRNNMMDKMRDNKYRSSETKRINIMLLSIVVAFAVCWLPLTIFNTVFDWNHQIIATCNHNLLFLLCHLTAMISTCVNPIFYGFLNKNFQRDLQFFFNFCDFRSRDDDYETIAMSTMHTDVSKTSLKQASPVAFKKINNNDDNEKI
How it was run: (§1)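 Cloned human receptor membranes were coated onto FlashPlate wells and incubated with radioligand and compound (added from a 0.5 mM DMSO daughter plate) for 1 hour at room temperature in the dark. Scintillation counting gave percent inhibition, with DMSO defining total and reference ligand defining non-specific binding.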

Human μ-opioid (MOP) = biological target: T2, Human μ-opioid (MOP) (Homo sapiens, UniProt P35372); assay: Radioligand binding, human μ-opioid (MOP) membranes, FlashPlate, [3H]-Naloxone; details: compound at 10 μM; [3H]-Naloxone
T2 construct: purchased Perkin Elmer Biosignal
T2 sequence (P35372 whole entry): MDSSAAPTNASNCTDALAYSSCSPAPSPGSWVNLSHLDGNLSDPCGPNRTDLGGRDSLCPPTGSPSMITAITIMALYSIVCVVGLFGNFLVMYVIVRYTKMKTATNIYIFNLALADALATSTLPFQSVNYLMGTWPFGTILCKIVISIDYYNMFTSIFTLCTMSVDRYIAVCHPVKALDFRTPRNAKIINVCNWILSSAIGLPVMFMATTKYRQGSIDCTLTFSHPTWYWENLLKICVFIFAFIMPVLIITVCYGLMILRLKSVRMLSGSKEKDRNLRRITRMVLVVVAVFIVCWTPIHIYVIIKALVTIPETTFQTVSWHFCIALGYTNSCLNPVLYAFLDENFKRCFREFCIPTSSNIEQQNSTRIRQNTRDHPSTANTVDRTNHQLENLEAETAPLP
How it was run: as §1

Human κ-Opioid (KOP) = biological target: T3, Human κ-Opioid (KOP) (Homo sapiens, UniProt P41145); assay: Radioligand binding, human κ-opioid (KOP) membranes, filtration, [3H]-Diprenorphine; details: compound at 10 μM; [3H]-Diprenorphine
T3 construct: purchased Perkin Elmer Biosignal
T3 sequence (P41145 whole entry): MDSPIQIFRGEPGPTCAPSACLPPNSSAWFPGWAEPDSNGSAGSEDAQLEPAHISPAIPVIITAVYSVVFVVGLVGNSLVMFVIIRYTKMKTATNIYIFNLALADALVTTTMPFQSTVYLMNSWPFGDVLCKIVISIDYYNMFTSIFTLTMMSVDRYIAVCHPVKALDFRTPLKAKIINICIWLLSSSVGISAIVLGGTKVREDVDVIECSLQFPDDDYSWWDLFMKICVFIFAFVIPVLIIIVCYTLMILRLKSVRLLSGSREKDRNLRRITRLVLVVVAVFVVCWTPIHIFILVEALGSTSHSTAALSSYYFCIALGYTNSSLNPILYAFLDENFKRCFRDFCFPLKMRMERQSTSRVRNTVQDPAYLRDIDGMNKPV
How it was run: (§2)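 Filtration binding on cloned human receptor membranes (1 Unit/well), [125I]-Substance P for NK1 and [3H]-Diprenorphine for KOP, 1 h at room temperature. Filters PEI-presoaked, washed with cold 50 mM Tris-HCl pH 7.4, counted by scintillation; percent inhibition calculated, reference ligand defining non-specific binding.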

[2] = biological target: T4, Human melanin-concentrating hormone (MCH1) (Homo sapiens, UniProt Q99705); assay: Radioligand binding, human melanin-concentrating hormone MCH1 membranes, FlashPlate, [125I]-S36057; details: compound at 10 μM; [125I]-S36057
T4 construct: purchased Perkin Elmer Biosignal
T4 sequence (Q99705 whole entry): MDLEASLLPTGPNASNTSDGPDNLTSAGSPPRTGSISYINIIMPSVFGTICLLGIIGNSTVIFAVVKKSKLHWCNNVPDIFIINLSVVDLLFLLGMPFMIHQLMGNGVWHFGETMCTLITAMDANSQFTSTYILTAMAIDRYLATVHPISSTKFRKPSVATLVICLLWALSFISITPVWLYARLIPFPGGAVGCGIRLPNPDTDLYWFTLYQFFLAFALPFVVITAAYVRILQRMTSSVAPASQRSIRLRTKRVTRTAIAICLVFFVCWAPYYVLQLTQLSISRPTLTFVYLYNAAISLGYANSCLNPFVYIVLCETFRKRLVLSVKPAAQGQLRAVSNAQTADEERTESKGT
How it was run: as §1

Human δ-opioid (DOP) = biological target: T5, Human δ-opioid (DOP) (Homo sapiens, UniProt P41143); assay: Radioligand binding, human δ-opioid (DOP) membranes, FlashPlate, [3H]-Bremazocine; details: compound at 10 μM; [3H]-Bremazocine
T5 construct: purchased Perkin Elmer Biosignal
T5 sequence (P41143 whole entry): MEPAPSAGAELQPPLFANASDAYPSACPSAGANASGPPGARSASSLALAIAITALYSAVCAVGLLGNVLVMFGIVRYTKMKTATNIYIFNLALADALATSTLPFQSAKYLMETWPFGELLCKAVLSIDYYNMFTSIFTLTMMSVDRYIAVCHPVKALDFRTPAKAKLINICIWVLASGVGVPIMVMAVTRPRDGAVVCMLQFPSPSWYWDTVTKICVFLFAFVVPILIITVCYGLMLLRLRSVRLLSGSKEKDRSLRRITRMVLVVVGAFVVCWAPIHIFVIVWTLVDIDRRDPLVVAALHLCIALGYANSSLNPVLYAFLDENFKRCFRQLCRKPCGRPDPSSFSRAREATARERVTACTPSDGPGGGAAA
How it was run: as §1

Human Melanocortin (MC4) = biological target: T6, Human Melanocortin (MC4) (Homo sapiens, UniProt P32245); assay: Radioligand binding, human melanocortin MC4 membranes, FlashPlate, [125I]-NDP-αMSH; details: compound at 10 μM, [125I]-NDP-αMSH
T6 construct: purchased Perkin Elmer Biosignal
T6 sequence (P32245 whole entry): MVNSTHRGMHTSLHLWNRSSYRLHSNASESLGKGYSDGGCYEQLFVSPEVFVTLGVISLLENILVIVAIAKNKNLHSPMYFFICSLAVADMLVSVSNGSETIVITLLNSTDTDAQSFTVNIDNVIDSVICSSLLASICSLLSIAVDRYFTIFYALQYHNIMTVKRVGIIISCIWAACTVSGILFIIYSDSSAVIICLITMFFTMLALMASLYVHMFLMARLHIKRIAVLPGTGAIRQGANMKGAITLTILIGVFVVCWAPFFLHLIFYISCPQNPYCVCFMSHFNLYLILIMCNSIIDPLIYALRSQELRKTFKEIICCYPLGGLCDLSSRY
How it was run: as §1

Mouse urotensin (mUR2) = biological target: T7, Mouse urotensin (mUR2) (Mus musculus, UniProt Q8VIH9); assay: Radioligand binding, mouse urotensin mUR2 membranes, FlashPlate, [125I]-Urotensin II; details: compound at 10 μM; [125I]-Urotensin II
T7 construct: purchased Perkin Elmer Biosignal
T7 sequence (Q8VIH9 1-385): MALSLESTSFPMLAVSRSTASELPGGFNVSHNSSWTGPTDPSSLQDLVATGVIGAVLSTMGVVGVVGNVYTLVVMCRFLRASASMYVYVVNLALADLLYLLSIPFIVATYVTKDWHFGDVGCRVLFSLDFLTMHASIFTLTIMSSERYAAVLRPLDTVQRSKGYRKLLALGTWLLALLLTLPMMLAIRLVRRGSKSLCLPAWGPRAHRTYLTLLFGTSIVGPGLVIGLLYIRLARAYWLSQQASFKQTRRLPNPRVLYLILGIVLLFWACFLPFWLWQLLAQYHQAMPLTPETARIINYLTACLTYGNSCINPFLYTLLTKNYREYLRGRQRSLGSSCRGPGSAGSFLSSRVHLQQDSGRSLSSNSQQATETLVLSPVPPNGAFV
How it was run: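 Cloned mouse urotensin (mUR2) receptor membranes from Perkin Elmer Biosignal were immobilized in FlashPlate microplates using a proprietary coating. Each well got 19.5 μl buffer, then 0.5 μl of DMSO, reference ligand, or compound. Adding 5 μl of [125I]-Urotensin II, diluted to 5× final concentration in binding buffer, started binding. Plates were sealed with TopSeal-A and incubated 1 hour at room temperature in the dark. Wells were counted for 30 seconds each on a TopCount after a 60-second delay, and percentage inhibition was calculated.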

Human Melanocortin (MC3) = biological target: T8, Human Melanocortin (MC3) (Homo sapiens, UniProt P41968); assay: Radioligand binding, human melanocortin MC3 membranes, FlashPlate, [125I]-NDP-αMSH; details: compound at 10 μM, [125I]-NDP-αMSH
T8 construct: purchased Perkin Elmer Biosignal
T8 sequence (P41968 whole entry): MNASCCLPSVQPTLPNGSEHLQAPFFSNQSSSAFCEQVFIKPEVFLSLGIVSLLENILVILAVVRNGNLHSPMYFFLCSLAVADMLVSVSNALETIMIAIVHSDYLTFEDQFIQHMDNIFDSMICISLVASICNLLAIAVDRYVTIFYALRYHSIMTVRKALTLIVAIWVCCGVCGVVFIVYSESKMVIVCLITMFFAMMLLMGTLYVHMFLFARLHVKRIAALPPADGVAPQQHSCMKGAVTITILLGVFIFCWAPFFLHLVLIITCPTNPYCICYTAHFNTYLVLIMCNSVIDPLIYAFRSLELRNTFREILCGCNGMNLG
How it was run: as §1

Human melanocortin (MC5) = biological target: T9, Human melanocortin (MC5) (Homo sapiens, UniProt P33032); assay: Radioligand binding, human melanocortin MC5 membranes, FlashPlate, [125I]-NDP-αMSH; details: compound at 10 μM; [125I]-NDP-αMSH
T9 construct: purchased Perkin Elmer Biosignal
T9 sequence (P33032 whole entry): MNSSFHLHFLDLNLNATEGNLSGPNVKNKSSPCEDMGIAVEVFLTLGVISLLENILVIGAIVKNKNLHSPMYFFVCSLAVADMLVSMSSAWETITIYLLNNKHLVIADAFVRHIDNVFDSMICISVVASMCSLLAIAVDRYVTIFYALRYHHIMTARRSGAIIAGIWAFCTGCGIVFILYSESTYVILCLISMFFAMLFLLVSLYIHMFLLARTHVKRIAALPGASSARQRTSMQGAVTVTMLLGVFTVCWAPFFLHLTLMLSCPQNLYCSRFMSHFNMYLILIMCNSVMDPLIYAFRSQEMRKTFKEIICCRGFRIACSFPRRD
How it was run: as §1

Human opioid (ORL1) = biological target: T10, Human opioid (ORL1) (Homo sapiens, UniProt P41146); assay: Radioligand binding, human opioid ORL1 membranes, FlashPlate, [125I]-Nociceptin; details: compound at 10 μM, [125I]-Nociceptin
T10 construct: purchased Perkin Elmer Biosignal
T10 sequence (P41146 whole entry): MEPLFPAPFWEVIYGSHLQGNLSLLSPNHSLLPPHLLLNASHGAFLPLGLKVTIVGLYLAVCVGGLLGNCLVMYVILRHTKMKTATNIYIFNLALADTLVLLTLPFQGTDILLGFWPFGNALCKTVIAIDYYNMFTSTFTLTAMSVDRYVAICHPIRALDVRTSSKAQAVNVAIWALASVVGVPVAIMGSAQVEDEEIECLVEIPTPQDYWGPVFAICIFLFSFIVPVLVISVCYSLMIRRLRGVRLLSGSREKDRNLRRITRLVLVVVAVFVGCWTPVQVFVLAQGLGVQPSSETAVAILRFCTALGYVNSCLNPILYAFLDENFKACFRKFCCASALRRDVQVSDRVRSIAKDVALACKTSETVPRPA
How it was run: as §1

Human neurokinin (NK1) = biological target: T11, Human neurokinin (NK1) (Homo sapiens, UniProt P25103); assay: Radioligand binding, human neurokinin NK1 membranes, filtration, [125I]-Substance P; details: compound at 10 μM; [125I]-Substance P
T11 construct: purchased Perkin Elmer Biosignal
T11 sequence (P25103 whole entry): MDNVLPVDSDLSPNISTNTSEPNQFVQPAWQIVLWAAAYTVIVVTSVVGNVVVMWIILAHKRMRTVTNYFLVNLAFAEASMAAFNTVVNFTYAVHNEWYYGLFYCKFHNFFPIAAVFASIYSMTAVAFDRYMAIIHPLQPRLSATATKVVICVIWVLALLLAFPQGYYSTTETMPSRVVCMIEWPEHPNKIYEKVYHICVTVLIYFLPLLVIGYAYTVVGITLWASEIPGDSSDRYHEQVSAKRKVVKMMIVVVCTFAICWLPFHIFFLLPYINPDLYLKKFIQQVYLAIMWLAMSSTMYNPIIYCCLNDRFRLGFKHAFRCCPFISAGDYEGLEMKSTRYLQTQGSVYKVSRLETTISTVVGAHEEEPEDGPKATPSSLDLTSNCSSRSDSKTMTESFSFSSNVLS
How it was run: as §2

| SMILES | A9: inhibition of radioligand binding, human neuropeptide Y (NPY-Y1) [1] | A7: inhibition of radioligand binding, human μ-opioid (MOP) (Human μ-opioid (MOP)) | A2: inhibition of radioligand binding, human κ-opioid (KOP) (Human κ-Opioid (KOP)) | A6: inhibition of radioligand binding, human melanin-concentrating hormone (MCH1) [2] | A1: inhibition of radioligand binding, human δ-opioid (DOP) (Human δ-opioid (DOP)) | A4: inhibition of radioligand binding, human melanocortin (MC4) (Human Melanocortin (MC4)) | A11: inhibition of radioligand binding, mouse urotensin (mUR2) (Mouse urotensin (mUR2)) | A3: inhibition of radioligand binding, human melanocortin (MC3) (Human Melanocortin (MC3); 10 µM) | A5: inhibition of radioligand binding, human melanocortin (MC5) (Human melanocortin (MC5)) | A10: inhibition of radioligand binding, human opioid (ORL1) (Human opioid (ORL1)) | A8: inhibition of radioligand binding, human neurokinin (NK1) (Human neurokinin (NK1)) | A3: inhibition of radioligand binding, human melanocortin (MC3) (Human Melanocortin (MC3)) | A4: inhibition of radioligand binding, human melanocortin (MC4) (Human Melanocortin (MC4); 10 µM) | A10: inhibition of radioligand binding, human opioid (ORL1) (Human opioid (ORL1); 10 µM) |
| --- | --- | --- | --- | --- | --- | --- | --- | --- | --- | --- | --- | --- | --- | --- |
| NCCCC(=O)NC1C(OCc2ccc(Cl)cc2)OC(COCc2ccc(Cl)cc2)C(O)C1OCc1ccc(Cl)cc1 (single isomer, unassigned) [compound 493] | − (“−” indicates less than 50% inhibition at 10 μM) | − (“−” indicates less than 50% inhibition at 10 μM) | − (“−” indicates less than 50% inhibition at 10 μM) | + (“+” indicates greater than 50% inhibition at 10 μM) | − (“−” indicates less than 50% inhibition at 10 μM) | + (“+” indicates greater than 50% inhibition at 10 μM) | − (“−” indicates less than 50% inhibition at 10 μM) | − (“−” indicates less than 50% inhibition at 10 μM) | + (“+” indicates greater than 50% inhibition at 10 μM) | + (“+” indicates greater than 50% inhibition at 10 μM) | + (“+” indicates greater than 50% inhibition at 10 μM) |  |  |  |
| NCCCC(=O)NC1C(OCc2ccc(Cl)cc2)OC(COCc2ccc(Cl)cc2)C(O)C1OCc1ccc(Cl)cc1 (single isomer, unassigned) [compound 494] | − (“−” indicates less than 50% inhibition at 10 μM) | − (“−” indicates less than 50% inhibition at 10 μM) | − (“−” indicates less than 50% inhibition at 10 μM) | + (“+” indicates greater than 50% inhibition at 10 μM) | − (“−” indicates less than 50% inhibition at 10 μM) | + (“+” indicates greater than 50% inhibition at 10 μM) | − (“−” indicates less than 50% inhibition at 10 μM) | + (“+” indicates greater than 50% inhibition at 10 μM) | + (“+” indicates greater than 50% inhibition at 10 μM) | + (“+” indicates greater than 50% inhibition at 10 μM) | + (“+” indicates greater than 50% inhibition at 10 μM) |  |  |  |
| NCCCC(=O)NC1C(OCc2ccc(Cl)cc2)OC(COCc2ccc3ccccc3c2)C(O)C1OCc1ccc2ccccc2c1 (single isomer, unassigned) [compound 495] | − (“−” indicates less than 50% inhibition at 10 μM) | + (“+” indicates greater than 50% inhibition at 10 μM) | − (“−” indicates less than 50% inhibition at 10 μM) | + (“+” indicates greater than 50% inhibition at 10 μM) | − (“−” indicates less than 50% inhibition at 10 μM) | + (“+” indicates greater than 50% inhibition at 10 μM) | − (“−” indicates less than 50% inhibition at 10 μM) |  | + (“+” indicates greater than 50% inhibition at 10 μM) | + (“+” indicates greater than 50% inhibition at 10 μM) | + (“+” indicates greater than 50% inhibition at 10 μM) | + (“+” indicates greater than 50% inhibition at 10 μM) |  |  |
| NCCCC(=O)NC1C(OCc2ccc(Cl)cc2)OC(COCc2ccc3ccccc3c2)C(O)C1OCc1ccc2ccccc2c1 (single isomer, unassigned) [compound 496] | − (“−” indicates less than 50% inhibition at 10 μM) | + (“+” indicates greater than 50% inhibition at 10 μM) | − (“−” indicates less than 50% inhibition at 10 μM) | + (“+” indicates greater than 50% inhibition at 10 μM) | − (“−” indicates less than 50% inhibition at 10 μM) | + (“+” indicates greater than 50% inhibition at 10 μM) | − (“−” indicates less than 50% inhibition at 10 μM) |  | + (“+” indicates greater than 50% inhibition at 10 μM) | + (“+” indicates greater than 50% inhibition at 10 μM) | + (“+” indicates greater than 50% inhibition at 10 μM) | + (“+” indicates greater than 50% inhibition at 10 μM) |  |  |
| NCCCC(=O)NC1C(OCc2ccc(Cl)cc2)OC(COCc2ccccc2)C(O)C1OCc1ccc2ccccc2c1 (single isomer, unassigned) [compound 497] | − (“−” indicates less than 50% inhibition at 10 μM) | − (“−” indicates less than 50% inhibition at 10 μM) | − (“−” indicates less than 50% inhibition at 10 μM) | − (“−” indicates less than 50% inhibition at 10 μM) | − (“−” indicates less than 50% inhibition at 10 μM) |  | − (“−” indicates less than 50% inhibition at 10 μM) |  | + (“+” indicates greater than 50% inhibition at 10 μM) |  | + (“+” indicates greater than 50% inhibition at 10 μM) | − (“−” indicates less than 50% inhibition at 10 μM) | − (“−” indicates less than 50% inhibition at 10 μM) | − (“−” indicates less than 50% inhibition at 10 μM) |
